Measurements from patent publication US9493468B2, “Antifungal 5,6-dihydro-4H-pyrrolo[1,2-a][1,4]benzo-diazepines and 6H-pyrrolo[1,2-a][1,4]benzodiazepines substituted with heterocyclic derivatives” (Janssen Pharmaceutica NV, priority 2011, dated 2016).

Columns and labels:
Assay type in all cases: cell-based
Microsporum canis = test: Antifungal activity in vitro, resazurin growth inhibition: Microsporum canis (B68128)
Outline: (§1)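 Fungi (10^3 cfu/well) grown in RPMI-1640 with L-glutamine, 2% glucose, MOPS pH 7.0, against 2- or 4-fold compound dilutions up to 64 μM. Dermatophytes incubated one week or more at 27° C. Growth inhibition read fluorimetrically (λex 550, λem 590 nm) after resazurin addition and further incubation.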

Candida parapsilosis = test: Antifungal activity in vitro, resazurin growth inhibition: Candida parapsilosis (B66126)
Outline: (§2)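 Broth microdilution: RPMI-1640/L-Gln/2% glucose, MOPS pH 7.0±0.1; 10^3 cfu/well; top concentration 64 μM, 2- or 4-fold steps. Dermatophytes at 27° C., one week or more. Resazurin 0.005% (w/v) added, fluorescence 550/590 nm.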

[1] = tested on: Trichophyton mentagrophytes; test: Antifungal activity in vitro, resazurin growth inhibition: Trichophyton mentagrophytes (B70554)
Outline: as §1

Sporothrix schenkii = test: Antifungal activity in vitro, resazurin growth inhibition: Sporothrix schenkii (B62482)
Outline: as §2

Cryptococcus neoformans = test: Antifungal activity in vitro, resazurin growth inhibition: Cryptococcus neoformans (B66663)
Outline: as §2

Trichophyton rubrum = test: Antifungal activity in vitro, resazurin growth inhibition: Trichophyton rubrum (B68183)
Outline: as §1

Aspergillus fumigatus = test: Antifungal activity in vitro, resazurin growth inhibition: Aspergillus fumigatus (B42928)
Outline: as §2

Row | Inf. B: Microsporum canis B68128, pIC50 (Microsporum canis) | Inf. D: Candida parapsilosis B66126, pIC50 (Candida parapsilosis) | Inf. G: Trichophyton mentagrophytes B70554, pIC50 [1] | Inf. A: Sporothrix schenkii B62482, pIC50 (Sporothrix schenkii) | Inf. F: Cryptococcus neoformans B66663, pIC50 (Cryptococcus neoformans) | Inf. C: Trichophyton rubrum B68183, pIC50 (Trichophyton rubrum) | Inf. E: Aspergillus fumigatus B42928, pIC50 (Aspergillus fumigatus) | Structure (SMILES)
1 | <4.19 | <4.19 | <4.19 | <4.19 | <4.19 | 5.64 | <4.19 | COc1cccc2cc(C3=NCc4ccc(Cl)cc4-n4cccc43)oc12 [Compound 142]
2 | <4.19 | <4.19 | <4.19 | 5.49 | 5.20 | 6.11 | <4.19 | COc1cccc2cc(C3=NCc4cccc(Cl)c4-n4cccc43)oc12 [Compound 143]
3 | 4.81 | <4.19 | <4.19 | <4.19 | <4.19 | 5.11 | <4.19 | COc1cccc2cc(C3=NCc4c(Cl)cc(Cl)cc4-n4cccc43)oc12 [Compound 145]
4 | 5.66 | <4.19 | <4.19 | <4.19 | <4.19 | 5.35 | <4.19 | COc1ccc2oc(C3=NCc4ccc(Cl)cc4-n4cccc43)cc2c1 [Compound 147]
5 | 5.82 | <4.19 | 4.19 | <4.19 | <4.19 | 5.04 | <4.19 | COc1ccc2oc(C3=NCc4c(Cl)cc(Cl)cc4-n4cccc43)cc2c1 [Compound 148]
6 | <4.19 | <4.19 | <4.19 | <4.19 | <4.19 | 4.95 | <4.19 | Clc1ccc(Cl)c2c1CN=C(c1ccc3ccoc3c1)c1cccn1-2 [Compound 151]
7 | <4.19 | 5.00 | <4.19 | <4.19 | 5.16 | <4.19 | <4.19 | Fc1cccc2c1CN=C(c1ccc3occ(Cl)c3c1)c1cccn1-2 [Compound 153]
8 | <4.19 | <4.19 | <4.19 | <4.19 | <4.19 | <4.19 | <4.19 | Fc1cc(F)c2c(c1)-n1cccc1C(c1ccc3occ(Cl)c3c1)=NC2 [Compound 154]
9 | 6.82 | 4.94 | 6.82 | 5.66 | 5.81 | 7.15 | 5.88 | Clc1cc2cc(C3=NCc4c(Cl)cccc4-n4cccc43)ccc2o1 [Compound 155]
10 | <4.19 | <4.19 | 4.49 | <4.19 | 4.51 | <4.19 | 4.48 | Clc1cccc2c1CN=C(c1ccc3c(Cl)coc3c1)c1cccn1-2 [Compound 156]
